According to US8097637B2, “Benzoyl-piperidine derivatives as dual modulators of the 5-HT2A and D3 receptors” (Hoffmann-La Roche Inc., priority 2007, dated 2012):

Key:
[1] = molecular target: T1, human D3 dopamine receptor (Homo sapiens, UniProt P35462); assay: Radioligand binding ([3H]-spiperone) to cloned human D3 receptor, HEK-293 EBNA cell membranes; conditions: 0.5 nM [3H]-spiperone, 1 h at RT, Cheng-Prusoff
T1 construct: expressed in transfected cells; host or cells: HEK-293 EBNA cells, transient transfection; membrane preparation
Experimental: The ability of the compounds to bind to the 5-HT2A, D3 and D2 receptors was determined using radioligand binding to cloned receptors selectively expressed in HEK-293 EBNA cells.
(§1) Membrane Preparation for Human D2, Human D3 and Human 5-HT2A Receptors
(§2) HEK-293 EBNA cells were transiently transfected with expression plasmids encoding for the human D2 or D3 dopamine- or for the human 5-HT2A serotonin receptor, respectively. The cells were harvested 48 h post-transfection, washed three times with cold PBS and stored at −80° C. prior to use. The pellet was suspended in cold 50 mM Tris-HCl buffer containing 10 mM EDTA (pH 7.4) and homogenized with a Polytron (Kinematica AG, Basel, Switzerland) for 20-30 sec at 12.000 rpm. After centrifugation at 48.000×g for 30 min at 4° C., the pellet was resuspended in cold 10 mM Tris-HCl buffer containing 0.1 mM EDTA (pH 7.4), homogenized, and centrifuged as above. This pellet was further resuspended in a smaller volume of ice cold 10 mM Tris-HCl buffer containing 0.1 mM EDTA (pH 7.4) and homogenized with a Polytron for 20-30 sec at 12.000 rpm. The protein content of this homogenate was determined with the Bio-Rad (Bradford) Protein Assay (Biorad Laboratories GmbH, München, Germany) according to the instructions of the manufacturer using gamma globulin as the standard. This homogenate was stored at −80° C. in aliquots and thawed immediately prior to use.
(§3) Radioligand Binding Assay Conditions
(§4) Aliquots of membrane preparations were thawed at RT, resuspended in assay buffer (D2, D3: 50 mM Tris-HCl, 120 mM NaCl, 5 mM MgCl2, 1 mM EDTA, 5 mM KCl, 1.5 mM CaCl2, pH=7.4; 5-HT2A: 50 mM Tris-HCl, 10 mM MgCl2, 1 mM EGTA, pH=7.4), homogenized with a Polytron for 20-30 sec at 12.000 rpm and adjusted to a final concentration of approximately 7.5 μg protein/well (D2, D3) and 15 μg protein/well (5-HT2A), respectively.
(§5) The binding affinity (Ki) of the compounds was determined using radioligand binding. Membranes were incubated in a total volume of 200 μl with a fixed concentration of radioligand (final concentration approximately 0.7 nM [^3H]-spiperone for D2, 0.5 nM [^3H]-spiperone for D3, and 1.1 nM [^3H]-ketanserin for 5-HT2A) and ten concentrations of test compound in ranging between 10 μM-0.1 nM for 1 h at RT. At the end of the incubation, the reaction mixtures were filtered on to unifilter 96-well white microplates with bonded GF/C filters (Packard BioScience, Zürich, Switzerland; preincubated for 1 h in 0.1% polyethylenimine (PEI) in assay buffer) with a Filtermate 196 harvester (Packard BioScience) and washed 3 times with cold assay buffer. The nonspecific binding was determined with equally composed reaction mixtures in the presence of 10 μM unlabeled spiperone. Per well 45 μl of Microscint 40 (Perkin Elmer, Schwerzenbach, Switzerland) was added, plates for sealed, shaken for 20 min and counted for 3 min on a Topcount Microplate Scintillation Counter (Canberra Packard SA, Zürich, Switzerland) with quenching correction.
(§6) The CPM value for each duplicate of a concentration of competing compound was averaged (yl), then the % specific binding was calculated according to the equation (((yl-non-specific)/(total binding-non-specific))×100). Graphs were plotted with the % specific binding using XLfit, a curve fitting program that iteratively plots the data using Levenburg Marquardt algorithm. The single site competition analysis equation used was y=A+((B−A)/(1+((x/C)^D))), where y is the % specific binding, A is the minimum y, B is the maximum y, C is the IC50, x is the log10 of the concentration of the competing compound and D is the slope of the curve (the Hill Coefficient). […] The affinity constant (Ki) was calculated using the Cheng-Prusoff equation Ki=(IC50/1+([L]/Kd), where [L] is the concentration of radioligand and Kd is the dissociation constant of the radioligand at the receptor as determined by the saturation isotherm.

[2] = molecular target: T2, human 5-HT2A serotonin receptor (Homo sapiens, UniProt P28223); assay: Radioligand binding ([3H]-ketanserin) to cloned human 5-HT2A receptor, HEK-293 EBNA cell membranes; conditions: 1.1 nM [3H]-ketanserin, 1 h at RT, Cheng-Prusoff
T2 construct: expressed in transfected cells; host or cells: HEK-293 EBNA cells, transient transfection; membrane preparation
Experimental: as §1
as §2, with “The” for “HEK-293 EBNA cells were transiently transfected with expression plasmids encoding for the human D2 or D3 dopamine- or for the human 5-HT2A serotonin receptor, respectively. The”
as §3, §4
The binding affinity (Ki) of the compounds was determined using radioligand binding. […] The nonspecific binding was determined with equally composed reaction mixtures in the presence of 10 μM unlabeled spiperone. Per well 45 μl of Microscint 40 (Perkin Elmer, Schwerzenbach, Switzerland) was added, plates for sealed, shaken for 20 min and counted for 3 min on a Topcount Microplate Scintillation Counter (Canberra Packard SA, Zürich, Switzerland) with quenching correction.
as §6

[3] = molecular target: T3, human D2 dopamine receptor (Homo sapiens, UniProt P14416); assay: Radioligand binding ([3H]-spiperone) to cloned human D2 receptor, HEK-293 EBNA cell membranes; conditions: 0.7 nM [3H]-spiperone, 1 h at RT, Cheng-Prusoff
T3 construct: expressed in transfected cells; host or cells: HEK-293 EBNA cells, transient transfection; membrane preparation
Experimental: as §1, §2, §3, §4, §5, §6

T3 sequence (P14416 whole entry): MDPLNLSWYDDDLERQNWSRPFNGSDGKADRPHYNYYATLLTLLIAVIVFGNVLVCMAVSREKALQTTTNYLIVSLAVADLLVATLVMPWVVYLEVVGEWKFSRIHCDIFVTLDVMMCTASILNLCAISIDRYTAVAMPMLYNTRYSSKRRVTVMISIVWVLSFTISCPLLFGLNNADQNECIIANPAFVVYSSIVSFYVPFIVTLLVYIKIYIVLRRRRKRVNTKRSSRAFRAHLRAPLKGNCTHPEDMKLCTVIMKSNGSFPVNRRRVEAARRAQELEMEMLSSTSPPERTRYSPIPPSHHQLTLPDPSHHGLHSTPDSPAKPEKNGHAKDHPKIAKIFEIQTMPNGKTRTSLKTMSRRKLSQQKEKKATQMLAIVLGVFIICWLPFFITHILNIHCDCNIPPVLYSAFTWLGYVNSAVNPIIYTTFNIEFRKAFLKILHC
T2 sequence (P28223 whole entry): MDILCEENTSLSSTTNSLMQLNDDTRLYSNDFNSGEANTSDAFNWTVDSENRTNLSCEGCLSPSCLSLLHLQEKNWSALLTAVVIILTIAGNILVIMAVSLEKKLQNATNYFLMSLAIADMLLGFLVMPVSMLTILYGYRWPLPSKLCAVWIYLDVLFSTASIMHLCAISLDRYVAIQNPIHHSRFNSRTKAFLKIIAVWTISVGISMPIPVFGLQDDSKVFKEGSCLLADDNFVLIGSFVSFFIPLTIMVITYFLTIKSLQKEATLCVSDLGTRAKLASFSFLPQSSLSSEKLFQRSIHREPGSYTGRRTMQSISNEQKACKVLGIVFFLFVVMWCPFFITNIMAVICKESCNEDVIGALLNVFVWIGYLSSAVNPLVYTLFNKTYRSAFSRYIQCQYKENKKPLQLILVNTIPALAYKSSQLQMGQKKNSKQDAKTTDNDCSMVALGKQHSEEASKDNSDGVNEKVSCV
T1 sequence (P35462 whole entry): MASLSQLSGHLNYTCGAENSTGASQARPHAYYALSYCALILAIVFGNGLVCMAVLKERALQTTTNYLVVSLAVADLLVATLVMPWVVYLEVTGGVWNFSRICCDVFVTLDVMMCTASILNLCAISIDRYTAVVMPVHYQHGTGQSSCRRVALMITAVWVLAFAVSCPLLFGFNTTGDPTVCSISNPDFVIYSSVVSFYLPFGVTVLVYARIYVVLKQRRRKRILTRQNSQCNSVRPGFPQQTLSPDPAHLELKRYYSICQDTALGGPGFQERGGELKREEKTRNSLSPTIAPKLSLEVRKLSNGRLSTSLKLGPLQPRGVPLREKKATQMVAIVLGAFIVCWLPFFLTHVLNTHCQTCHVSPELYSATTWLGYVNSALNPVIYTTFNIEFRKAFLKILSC

**Q.** What does the source list for `CC(=O)N[C@H]1CC[C@H](CC(=O)N[C@H]2CC[C@H](CCN3CCC(C(=O)c4ccc(F)cc4)CC3)CC2)CC1` [Example 27, 2-trans (4-Acetylamino-cyclohexyl)-N-trans-(4-{2-[4-(4-fluoro-benzoyl)-piperidin-1-yl]-ethyl}-cyclohexyl)-acetamide]?
**A.** Ki [1]: 44 nM; Ki [2]: 34 nM; Ki [3]: 2070 nM
